Key:
[1] = target: T1, Angiotensin-converting enzyme (Oryctolagus cuniculus) (UniProt P12822); assay: Time to inhibit maximum angiotensin I converting enzyme in rabbit lung; assay type: functional, tissue-based
T1 sequence (whole entry): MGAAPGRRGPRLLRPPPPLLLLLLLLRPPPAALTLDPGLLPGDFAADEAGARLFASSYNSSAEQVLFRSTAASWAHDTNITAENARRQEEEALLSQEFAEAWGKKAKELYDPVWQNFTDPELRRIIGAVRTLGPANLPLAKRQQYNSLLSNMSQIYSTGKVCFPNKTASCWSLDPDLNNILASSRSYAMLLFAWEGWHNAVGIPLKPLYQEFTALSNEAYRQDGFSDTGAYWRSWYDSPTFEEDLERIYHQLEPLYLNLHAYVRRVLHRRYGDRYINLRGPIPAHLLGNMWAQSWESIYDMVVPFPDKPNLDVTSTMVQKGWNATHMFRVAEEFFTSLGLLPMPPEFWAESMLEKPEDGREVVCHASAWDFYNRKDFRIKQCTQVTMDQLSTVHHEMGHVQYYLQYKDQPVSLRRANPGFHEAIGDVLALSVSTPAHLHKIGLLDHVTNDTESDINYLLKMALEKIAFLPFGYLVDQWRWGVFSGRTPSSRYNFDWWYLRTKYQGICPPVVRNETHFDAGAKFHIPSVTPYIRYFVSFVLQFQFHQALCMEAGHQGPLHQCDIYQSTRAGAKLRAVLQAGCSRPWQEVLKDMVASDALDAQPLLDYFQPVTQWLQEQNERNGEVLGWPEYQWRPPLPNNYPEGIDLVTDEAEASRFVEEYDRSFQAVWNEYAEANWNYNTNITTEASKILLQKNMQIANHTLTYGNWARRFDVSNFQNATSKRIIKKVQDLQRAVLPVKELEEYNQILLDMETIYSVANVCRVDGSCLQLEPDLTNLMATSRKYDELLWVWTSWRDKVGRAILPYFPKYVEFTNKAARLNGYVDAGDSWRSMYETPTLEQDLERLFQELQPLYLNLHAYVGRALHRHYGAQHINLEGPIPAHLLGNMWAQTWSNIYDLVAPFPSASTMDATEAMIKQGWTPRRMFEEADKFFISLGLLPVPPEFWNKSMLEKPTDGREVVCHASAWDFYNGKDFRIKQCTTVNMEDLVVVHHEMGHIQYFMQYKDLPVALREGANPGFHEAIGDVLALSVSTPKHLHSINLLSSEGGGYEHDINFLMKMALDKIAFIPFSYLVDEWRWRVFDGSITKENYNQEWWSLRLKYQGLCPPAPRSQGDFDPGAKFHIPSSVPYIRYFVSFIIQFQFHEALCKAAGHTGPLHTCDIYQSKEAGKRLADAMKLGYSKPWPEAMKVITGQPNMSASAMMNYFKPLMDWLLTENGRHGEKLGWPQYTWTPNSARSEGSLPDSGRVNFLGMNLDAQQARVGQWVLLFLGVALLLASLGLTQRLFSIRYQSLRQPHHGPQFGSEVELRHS

[2] = target: T1, Angiotensin-converting enzyme (Oryctolagus cuniculus); assay: Time during which angiotensin I converting enzyme inhibition is greater than or equa to 30% in rabbit lung; assay type: functional, tissue-based
[3] = target: T2, Angiotensin-converting enzyme (Oryctolagus cuniculus, UniProt P12822); assay: In vitro inhibition of angiotensin I converting enzyme (ACE) in rabbit lung; assay type: tissue-based
T2 sequence (P12822 whole entry): T1 sequence (whole entry)

[4] = target: T1, Angiotensin-converting enzyme (Oryctolagus cuniculus); assay: In vivo inhibition of angiotensin I converting enzyme (ACE) in rabbit lung after (iv) administration of a dose of 10(mg/kg); assay type: organism-based
Rattus norvegicus [5] = assay: Percent change in K+ in fasted rats at the dose of 100 mg/kg (iv), 0-5 h; assay type: functional
Rattus norvegicus [6] = assay: Percent change in K+ in fasted rats at the dose of 100 mg/kg (iv), 5-24 h; assay type: functional
Rattus norvegicus [7] = assay: Percent change in Na+ in fasted rats at the dose of 100 mg/kg (iv), 0-5 h; assay type: functional
Rattus norvegicus [8] = assay: Percent change in Na+in fasted rats at the dose of 100 mg/kg (iv), 5-24 h; assay type: functional
Rattus norvegicus [9] = assay: Percent change in urinary volume in fasted rats at the dose of 100 mg/kg (iv), 0-5 h; assay type: functional, Urine
Rattus norvegicus [10] = assay: Percent change in urinary volume in fasted rats at the dose of 100 mg/kg (iv), 5-24 h; assay type: functional, Urine

## C[C@H](N[C@@H](CCc1ccccc1)C(=O)O)C(=O)N1C[C@@H](NS(=O)(=O)c2cc(S(N)(=O)=O)c(N)cc2Cl)C[C@H]1C(=O)O
[1]
  Time to max. inhibition: 0.3 h
[2]
  Duration: 3.7 h
[3]
  IC50: 6.5 nM
[4]
  inhibition: 76%
Rattus norvegicus [5]
  Change: 0%
Rattus norvegicus [6]
  Change: 0%
Rattus norvegicus [7]
  Change: -57%
Rattus norvegicus [8]
  Change: 38%
Rattus norvegicus [9]
  Change: -49%
Rattus norvegicus [10]
  Change: 60%

Source: ChEMBL document CHEMBL1124790, “Angiotensin converting enzyme inhibitors. 10. Aryl sulfonamide substituted N-[1-carboxy-3-phenylpropyl]-L-alanyl-L-proline derivatives as novel antihypertensives” (J Med Chem, 1990)
